The values below come from ChEMBL document CHEMBL2429832, “N-substituted 8-aminopentacyclo[5.4.0.0(2,6).0(3,10).0(5,9)]undecanes as σ receptor ligands with potential neuroprotective effects” (Bioorg Med Chem, 2013).

The inhibition is the share of the control response that was lost under treatment. Higher therefore signals strong suppression. In general, Ki refers to a measure of affinity in units of concentration, obtained from inhibition or displacement. The low end stands for tighter binding, the high end for weaker binding.

Experiment [1] deals with 5-hydroxytryptamine receptor 2A (Homo sapiens, UniProt P28223). The experiment in a line: Inhibition of 5-HT2A receptor (unknown origin) at 10 uM by PDSP assay relative to control.
The target of experiment [2] is 5-hydroxytryptamine receptor 1E (Homo sapiens) (UniProt P28566). As to the kind of experiment: Inhibition of 5-HT1E receptor (unknown origin) at 10 uM by PDSP assay relative to control.
Experiment [3] concerns the target Beta-3 adrenergic receptor (Homo sapiens) (UniProt P13945). The experiment in a line: Inhibition of adrenergic beta3 receptor (unknown origin) at 10 uM by PDSP assay relative to control.
The species entered for another experiment is Rattus norvegicus. As to the kind of experiment: Inhibition of rat brain BZP receptor at 10 uM by PDSP assay relative to control.
The target in experiment [4] is T1, Alpha-2B adrenergic receptor (Homo sapiens) (UniProt P18089).
T1 sequence (whole entry): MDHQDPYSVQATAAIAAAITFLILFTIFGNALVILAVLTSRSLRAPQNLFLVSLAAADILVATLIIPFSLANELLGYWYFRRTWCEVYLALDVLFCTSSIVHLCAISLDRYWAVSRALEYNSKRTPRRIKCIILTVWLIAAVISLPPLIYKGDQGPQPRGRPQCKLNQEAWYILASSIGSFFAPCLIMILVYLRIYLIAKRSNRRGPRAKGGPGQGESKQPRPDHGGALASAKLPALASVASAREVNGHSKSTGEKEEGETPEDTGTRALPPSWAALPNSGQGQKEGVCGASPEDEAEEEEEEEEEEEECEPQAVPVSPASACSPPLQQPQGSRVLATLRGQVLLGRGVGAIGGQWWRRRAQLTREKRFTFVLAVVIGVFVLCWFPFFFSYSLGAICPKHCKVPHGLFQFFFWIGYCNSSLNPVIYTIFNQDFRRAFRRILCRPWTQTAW
As to the kind of experiment: Inhibition of adrenergic alpha2B receptor (unknown origin) at 10 uM by PDSP assay relative to control.

Experiment [5] concerns the target T2, Alpha-1D adrenergic receptor (Homo sapiens) (UniProt P25100).
T2 sequence (whole entry): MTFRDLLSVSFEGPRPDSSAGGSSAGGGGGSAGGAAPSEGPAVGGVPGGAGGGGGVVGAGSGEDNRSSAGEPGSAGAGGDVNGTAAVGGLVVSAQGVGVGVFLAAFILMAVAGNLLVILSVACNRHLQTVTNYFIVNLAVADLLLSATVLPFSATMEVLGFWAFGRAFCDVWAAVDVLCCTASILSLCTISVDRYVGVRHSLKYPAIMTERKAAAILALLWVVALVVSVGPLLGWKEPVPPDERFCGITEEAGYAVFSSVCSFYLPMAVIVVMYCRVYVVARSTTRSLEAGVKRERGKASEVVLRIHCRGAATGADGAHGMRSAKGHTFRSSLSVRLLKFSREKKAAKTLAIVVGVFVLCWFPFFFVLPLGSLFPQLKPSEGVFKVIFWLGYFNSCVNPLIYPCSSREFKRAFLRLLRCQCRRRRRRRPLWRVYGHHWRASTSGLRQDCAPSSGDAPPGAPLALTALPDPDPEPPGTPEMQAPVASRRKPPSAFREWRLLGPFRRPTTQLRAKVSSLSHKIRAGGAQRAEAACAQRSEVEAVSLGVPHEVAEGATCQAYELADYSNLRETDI
As to the kind of experiment: Inhibition of adrenergic alpha1D receptor (unknown origin) at 10 uM by PDSP assay relative to control.

Experiment [6] concerns the target T3, Alpha-1A adrenergic receptor (Homo sapiens) (UniProt P35348).
T3 sequence (whole entry): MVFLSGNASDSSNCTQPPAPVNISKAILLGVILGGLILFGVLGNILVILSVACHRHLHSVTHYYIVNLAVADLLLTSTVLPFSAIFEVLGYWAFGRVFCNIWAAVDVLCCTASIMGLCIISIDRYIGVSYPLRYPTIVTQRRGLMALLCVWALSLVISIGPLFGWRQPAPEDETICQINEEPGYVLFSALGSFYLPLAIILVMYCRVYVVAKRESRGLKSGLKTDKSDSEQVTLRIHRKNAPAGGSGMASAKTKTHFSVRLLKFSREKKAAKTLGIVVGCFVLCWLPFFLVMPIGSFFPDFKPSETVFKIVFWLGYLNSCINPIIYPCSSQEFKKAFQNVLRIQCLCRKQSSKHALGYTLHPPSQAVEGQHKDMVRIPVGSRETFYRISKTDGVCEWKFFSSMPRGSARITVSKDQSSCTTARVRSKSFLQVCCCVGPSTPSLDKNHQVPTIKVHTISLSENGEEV
As to the kind of experiment: Inhibition of adrenergic alpha1A receptor (unknown origin) at 10 uM by PDSP assay relative to control.

A short description of experiment [7]: Displacement of [3H]-DTG from sigma-2 receptor in rat PC12 cells. It counts as cell-based. As to conditions: pc-12.
In experiment [8] the target is Delta-type opioid receptor (Homo sapiens, UniProt P41143). The experiment in a line: Inhibition of delta opioid receptor (unknown origin) at 10 uM by PDSP assay relative to control.
Experiment [9] has as its target Kappa-type opioid receptor (Homo sapiens, UniProt P41145). The experiment in a line: Inhibition of kappa opioid receptor (unknown origin) at 10 uM by PDSP assay relative to control.
Experiment [10] addresses 5-hydroxytryptamine receptor 5A (Homo sapiens, UniProt P47898). The experiment in a line: Inhibition of 5-HT5A receptor (unknown origin) at 10 uM by PDSP assay relative to control.
For experiment [11], the target named is 5-hydroxytryptamine receptor 6 (Homo sapiens, UniProt P50406). The experiment in a line: Inhibition of 5-HT6 receptor (unknown origin) at 10 uM by PDSP assay relative to control.
The target of experiment [12] is T4, 5-hydroxytryptamine receptor 2C (Homo sapiens) (UniProt P28335).
T4 sequence (whole entry): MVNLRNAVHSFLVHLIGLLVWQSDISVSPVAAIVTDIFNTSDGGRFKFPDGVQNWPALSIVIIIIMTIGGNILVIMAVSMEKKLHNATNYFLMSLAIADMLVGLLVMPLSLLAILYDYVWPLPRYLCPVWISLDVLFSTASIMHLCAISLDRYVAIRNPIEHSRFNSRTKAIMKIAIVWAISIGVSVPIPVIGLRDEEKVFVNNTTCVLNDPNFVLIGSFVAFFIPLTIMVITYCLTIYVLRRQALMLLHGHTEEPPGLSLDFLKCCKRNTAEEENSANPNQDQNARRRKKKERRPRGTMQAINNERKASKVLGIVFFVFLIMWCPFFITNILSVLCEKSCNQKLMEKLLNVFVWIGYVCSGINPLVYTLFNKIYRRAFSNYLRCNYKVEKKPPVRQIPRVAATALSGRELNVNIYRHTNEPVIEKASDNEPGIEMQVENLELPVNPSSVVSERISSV
The experiment in a line: Inhibition of 5-HT2C receptor (unknown origin) at 10 uM by PDSP assay relative to control.

Delta-type opioid receptor, sequence (P41143 whole entry): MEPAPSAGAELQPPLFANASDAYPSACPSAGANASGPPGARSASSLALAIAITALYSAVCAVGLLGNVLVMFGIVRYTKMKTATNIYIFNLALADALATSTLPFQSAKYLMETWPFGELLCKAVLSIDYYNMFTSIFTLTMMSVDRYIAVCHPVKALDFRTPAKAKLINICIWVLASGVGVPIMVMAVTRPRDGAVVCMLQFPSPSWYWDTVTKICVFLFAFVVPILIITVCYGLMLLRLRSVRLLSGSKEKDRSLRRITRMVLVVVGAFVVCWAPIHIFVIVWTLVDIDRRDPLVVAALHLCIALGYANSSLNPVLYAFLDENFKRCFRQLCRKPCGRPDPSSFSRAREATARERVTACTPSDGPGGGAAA
Beta-3 adrenergic receptor (Homo sapiens), sequence (P13945 whole entry, looked up): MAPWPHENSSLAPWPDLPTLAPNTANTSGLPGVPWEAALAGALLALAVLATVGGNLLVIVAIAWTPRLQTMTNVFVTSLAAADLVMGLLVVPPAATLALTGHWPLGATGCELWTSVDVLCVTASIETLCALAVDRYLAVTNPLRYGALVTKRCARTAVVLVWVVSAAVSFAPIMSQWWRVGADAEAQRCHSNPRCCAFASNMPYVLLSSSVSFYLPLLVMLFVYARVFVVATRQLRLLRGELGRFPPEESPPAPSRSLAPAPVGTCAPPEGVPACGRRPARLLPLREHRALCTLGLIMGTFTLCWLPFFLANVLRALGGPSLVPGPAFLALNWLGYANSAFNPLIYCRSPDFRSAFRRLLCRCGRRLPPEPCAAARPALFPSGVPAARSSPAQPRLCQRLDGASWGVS
5-hydroxytryptamine receptor 5A, sequence (P47898 whole entry): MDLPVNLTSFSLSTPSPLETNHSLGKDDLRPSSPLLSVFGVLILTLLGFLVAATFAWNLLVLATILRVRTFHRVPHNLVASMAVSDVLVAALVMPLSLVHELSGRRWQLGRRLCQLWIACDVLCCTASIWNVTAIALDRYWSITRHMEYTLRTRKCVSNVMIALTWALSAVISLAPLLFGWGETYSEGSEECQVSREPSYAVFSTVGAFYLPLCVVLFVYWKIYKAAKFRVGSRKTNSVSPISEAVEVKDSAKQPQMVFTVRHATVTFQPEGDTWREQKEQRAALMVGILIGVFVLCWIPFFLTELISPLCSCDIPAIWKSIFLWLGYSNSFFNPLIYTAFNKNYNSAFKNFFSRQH
Kappa-type opioid receptor, sequence (P41145 whole entry): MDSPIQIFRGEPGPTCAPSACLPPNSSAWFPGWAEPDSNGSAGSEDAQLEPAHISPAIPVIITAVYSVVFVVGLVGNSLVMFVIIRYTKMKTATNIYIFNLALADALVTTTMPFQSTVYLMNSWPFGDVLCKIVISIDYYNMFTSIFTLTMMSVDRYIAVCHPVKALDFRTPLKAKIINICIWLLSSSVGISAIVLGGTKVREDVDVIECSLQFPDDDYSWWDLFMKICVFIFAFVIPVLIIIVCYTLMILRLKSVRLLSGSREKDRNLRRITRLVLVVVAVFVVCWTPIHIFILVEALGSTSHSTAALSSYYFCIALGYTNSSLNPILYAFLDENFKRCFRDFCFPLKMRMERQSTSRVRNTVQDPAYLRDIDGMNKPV
5-hydroxytryptamine receptor 2A, sequence (P28223 whole entry): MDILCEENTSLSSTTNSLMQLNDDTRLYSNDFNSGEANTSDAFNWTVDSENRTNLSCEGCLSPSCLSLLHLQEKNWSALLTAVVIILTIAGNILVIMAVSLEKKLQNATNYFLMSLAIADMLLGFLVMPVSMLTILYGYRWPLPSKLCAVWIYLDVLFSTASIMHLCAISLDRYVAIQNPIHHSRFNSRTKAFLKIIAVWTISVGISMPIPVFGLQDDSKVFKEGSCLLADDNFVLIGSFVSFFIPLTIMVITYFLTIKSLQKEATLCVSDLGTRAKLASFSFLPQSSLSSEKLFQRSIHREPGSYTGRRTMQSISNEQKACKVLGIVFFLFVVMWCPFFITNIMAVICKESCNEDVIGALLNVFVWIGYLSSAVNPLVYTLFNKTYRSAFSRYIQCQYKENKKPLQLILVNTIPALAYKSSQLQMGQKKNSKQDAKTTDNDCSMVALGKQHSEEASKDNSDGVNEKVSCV
5-hydroxytryptamine receptor 6, sequence (P50406 whole entry): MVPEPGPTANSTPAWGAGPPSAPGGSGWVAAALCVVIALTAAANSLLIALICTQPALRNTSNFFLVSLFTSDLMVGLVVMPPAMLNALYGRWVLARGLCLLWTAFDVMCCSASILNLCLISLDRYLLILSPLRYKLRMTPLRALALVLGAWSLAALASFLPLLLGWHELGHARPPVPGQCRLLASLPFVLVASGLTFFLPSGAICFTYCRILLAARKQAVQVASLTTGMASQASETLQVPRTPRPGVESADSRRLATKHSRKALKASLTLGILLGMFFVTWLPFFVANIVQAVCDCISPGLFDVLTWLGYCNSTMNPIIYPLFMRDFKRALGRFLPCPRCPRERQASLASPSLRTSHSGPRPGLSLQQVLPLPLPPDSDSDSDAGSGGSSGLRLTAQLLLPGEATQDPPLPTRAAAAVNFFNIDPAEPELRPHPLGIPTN
5-hydroxytryptamine receptor 1E (Homo sapiens), sequence (P28566 whole entry): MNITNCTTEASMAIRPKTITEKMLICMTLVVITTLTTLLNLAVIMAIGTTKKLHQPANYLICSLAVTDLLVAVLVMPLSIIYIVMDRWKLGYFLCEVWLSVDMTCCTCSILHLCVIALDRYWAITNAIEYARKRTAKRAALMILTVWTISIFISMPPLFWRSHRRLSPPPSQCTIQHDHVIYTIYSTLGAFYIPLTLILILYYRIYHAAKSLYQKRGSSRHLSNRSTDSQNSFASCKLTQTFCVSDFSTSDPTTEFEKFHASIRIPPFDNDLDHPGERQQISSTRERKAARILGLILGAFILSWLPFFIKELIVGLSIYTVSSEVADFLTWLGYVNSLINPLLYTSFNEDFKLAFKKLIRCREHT

As to `CN(Cc1ccccc1)[C@H]1C2C3CC4C2C(=O)C2C4C3C21` (stereo partly specified), the inhibition (in experiment [1]; in [2]; in [3]; in the experiment listed under Rattus norvegicus; in experiment [4]; in experiment [5]) was < 50% each time. The inhibition in experiment [6], in [8], in experiment [9], in experiment [10], in [11] and in experiment [12] was < 50% throughout. In addition, in experiment [7], the Ki is 217 nM.

With `COc1ccc(CN(C)[C@H]2C3C4CC5C3C(=O)C3C5C4C32)cc1OC` (stereo partly specified), the inhibition (in [1]; in experiment [2]; in experiment [3]; in the experiment listed under Rattus norvegicus; in experiment [4]; in experiment [5]) was < 50% throughout. Also, the inhibition in [6], in experiment [8], in [9], in [10], in experiment [11] and in [12] was < 50% each time. Moreover, in experiment [7], the Ki worked out at 471 nM.

With `COc1cc(CN(C)[C@H]2C3C4CC5C6C4CC3C6C52)cc(OC)c1OC` (stereo partly specified), the inhibition (in [1]; in experiment [2]; in experiment [3]; in the experiment filed under Rattus norvegicus; in experiment [4]; in experiment [5]) was < 50% throughout. For the same molecule, the inhibition in [6], in experiment [8], in experiment [9], in experiment [10], in experiment [11] and in [12] was < 50% in each case. Also, affinity in experiment [7] was put at a Ki of 714 nM.

On to `CN(Cc1cccnc1)[C@H]1C2C3CC4C2C(=O)C2C4C3C21` (stereo partly specified), for which the inhibition (in experiment [1]; in experiment [2]; in experiment [3]; in the experiment listed under Rattus norvegicus; in [4]; in experiment [5]) was < 50% each time. The inhibition in [6], in experiment [8], in [9], in experiment [10], in [11] and in experiment [12] was < 50% in each case. The molecule further yielded a Ki in experiment [7] of 2630 nM.

Consider `COc1ccc(CN(C)[C@H]2C3C4CC5C6C4CC3C6C52)cc1OC` (stereo partly specified), for which the inhibition (in experiment [1]; in experiment [2]; in experiment [3]; in the experiment filed under Rattus norvegicus; in experiment [4]; in experiment [5]) was < 50% in each case. Moreover, the inhibition in [6], in [8], in experiment [9], in [10], in experiment [11] and in experiment [12] was < 50% in each case. The molecule also gave a Ki in [7] of 27 nM.

On to `CN(CCc1ccccc1)[C@H]1C2C3CC4C2C(=O)C2C4C3C21` (stereo partly specified), for which the inhibition (in experiment [1]; in experiment [2]; in experiment [3]; in the experiment listed under Rattus norvegicus; in [4]; in experiment [5]) was < 50% throughout. The inhibition in experiment [6], in experiment [8], in [9], in experiment [10], in experiment [11] and in experiment [12] was < 50% in each case. Further, the affinity in [7] corresponds to a Ki of 172 nM.

In the case of `CN(CCc1cccc(F)c1)[C@H]1C2C3CC4C2C(=O)C2C4C3C21` (stereo partly specified), the inhibition (in experiment [1]; in experiment [2]; in experiment [3]; in the experiment filed under Rattus norvegicus; in experiment [4]; in experiment [5]) was < 50% each time. Moreover, the inhibition in experiment [6], in experiment [8], in experiment [9], in [10], in [11] and in experiment [12] was < 50% in each case. The same molecule gave a Ki in experiment [7] of 55 nM.
